Common to all, as to format: physicochemical
A short description of data set [1]: Fluorescence emission spectra with excitation at 980 nm (InGaAs NIR detector). To be noted: for fluorescence emission in water: aqueous solution. The protocol:
The emission of D2 was measured in acetonitrile (ACN), ethanol (EtOH), methanol (MeOH). Spectra were recorded on a Quantamaster 8075-21 fluorescence spectrophotometer equipped with a liquid nitrogen cooled cooled DSS-IGA020L/CUS InGaAs NIR detector with excitation at 980 nm and emission recorded from 1000 nm to 1200 nm. The emission spectra as illustrated in FIG. 2 are at equal absorbance at 980 nm for each solvent.
The fluorescence spectra for an equal absorbance ˜0.13 solution of dyes A, B, C in dichloroethane were determined by exciting at 980 nm (Horiba (Quantamaster 8075-21), nitrogen cooled InGaAs detector) and compared them with a commercially available dye, IR-26 (obtained from Exciton) D as reference. Dye B is more than 2 fold brighter than the reference IR-26 in DCE as illustrated in FIG. 3.
The fluorescence of dyes A, B and C were also determined in other solvents viz., methanol, ethanol, DMSO and water. […]

Data set [2] can be described thus: Absorbance spectra / absorbance maximum in solvents (UV/vis spectrophotometer). The source says:
Normalized spectra thus obtained are shown in FIG. 1 for each fluorochrome compound. […]

Assay in data set [3]: as above
This is another data set of the same source.

[4] abbreviates: DCE, excitation 980 nm, equal absorbance ~0.13.

“And” between values parts separate entries of the source, which are not always exact repeats. Identical values can stand only once.

Consider `CCn1/c(=C/C=C2\CCCC(/C=C/C3=[N+](CC)c4cccc5c(S(=O)(=O)[O-])ccc3c45)=C2Cl)c2ccc(S(=O)(=O)O)c3cccc1c32` [A], for which the “% Fluorescence Relative to C” value in data set [1] (DCE) came to 90.11%; in data set [1] (DMSO), 29.46%; in data set [1] (EtOH), 92.92%; in data set [1] (MeOH), 86.00%. Further, the “Fluorescence Max” value stood at 1064 nm in data set [1] (setting [4]); 1080 nm in data set [1] (DMSO, excitation 980 nm); 1050 nm in data set [1] (EtOH, excitation 980 nm); 1046 nm in data set [1] (MeOH, excitation 980 nm). The “fluorescence emission in water” value in data set [1] was “highly quenched”.

Take `CCn1/c(=C/C=C2C(Cl)=C(/C=C/C3=[N+](CC)c4cccc5c(S(=O)(=O)[O-])ccc3c45)C3CCC/2C3)c2ccc(S(=O)(=O)O)c3cccc1c32` (centres unmarked) [B]: the “% Fluorescence Relative to C” value in data set [1] (DCE) amounted to 130.82%; in data set [1] (DMSO), 80.53%; in data set [1] (EtOH) it was 76.31%; in data set [1] (MeOH), 94.80%. Further, the “Fluorescence Max” value in data set [1] (setting [4]) is given as 1080 nm; in data set [1] (DMSO, excitation 980 nm), 1092 nm; in data set [1] (EtOH, excitation 980 nm), 1062 nm; in data set [1] (MeOH, excitation 980 nm) it was 1056 nm. The “fluorescence emission in water” value in data set [1] was “highly quenched”. Further, in data set [1] (in DCE, excitation 980 nm, equal absorbance), the “brightness relative to the reference IR-26” value was “more than 2 fold”.

Regarding `O=S(=O)([O-])CCCC[N+]1=C(/C=C/C2=C(Cl)C(=C/C=c3\c4cccc5cccc(c54)n3CCCCS(=O)(=O)O)/CCC2)c2cccc3cccc1c23` [C], the “% Fluorescence Relative to C” value in data set [1] (DCE), in data set [1] (DMSO), in data set [1] (EtOH) and in data set [1] (MeOH) was 1.00% each time. Also, the “Fluorescence Max” value in data set [1] (setting [4]) is given as 1062 nm; in data set [1] (DMSO, excitation 980 nm) it was 1074 nm; in data set [1] (EtOH, excitation 980 nm), 1046 nm; in data set [1] (MeOH, excitation 980 nm), 1042 nm. In data set [1], the “fluorescence emission in water” value was “highly quenched”.

In the case of `O=C(O)CCCn1\c(=C/C=C/C=C/C=C/C2=[N+](CCCS(=O)(=O)O)c3ccc(S(=O)(=O)[O-])c4cccc2c34)c2cccc3c(S(=O)(=O)O)ccc1c32` [D13], the “Abs λmax (absorbance max, UV-Vis λmax)” value in data set [2] (methanol) is approximately 980 nm.

For the compound `O=S(=O)([O-])CCC[N+]1=C(/C=C/C2=C(Cl)C(=C/C=c3/c4cccc5c(S(=O)(=O)O)ccc(c54)n3CCCS(=O)(=O)O)/C3CCC2C3)c2cccc3c(S(=O)(=O)O)ccc1c23` (centres unmarked) [D15], the “Abs λmax (absorbance max, UV-Vis λmax)” value in data set [2] (methanol) is recorded as approximately 1030 nm.

For `O=C(O)CCCn1\c(=C/C=C/C=C/C=C/C2=[N+](CCCC(=O)O)c3ccc(S(=O)(=O)[O-])c4cccc2c34)c2cccc3c(S(=O)(=O)O)ccc1c32` [D17], the “Abs λmax (absorbance max, UV-Vis λmax)” value in data set [2] (methanol) is approximately 990 nm.

As for `O=C(O)C[N+]1=C(/C=C/C=C/C=C/C=c2/c3cccc4c(S(=O)(=O)O)ccc(c43)n2CCCS(=O)(=O)O)c2cccc3c(S(=O)(=O)[O-])ccc1c23` [D18], the “Abs λmax (absorbance max, UV-Vis λmax)” value in data set [2] (methanol) is 970 nm and ~990 nm.

Turning to `O=C(O)Cn1\c(=C/C=C/C=C/C=C/C2=[N+](CC(=O)O)c3ccc(S(=O)(=O)[O-])c4cccc2c34)c2cccc3c(S(=O)(=O)O)ccc1c32` [D19], in data set [2] (methanol), the “Abs λmax (absorbance max, UV-Vis λmax)” value was 980 nm and ~1010 nm.

As for `C[N+]1=C(/C=C/C=C/C=C/C=c2/c3cccc4c(S(=O)(=O)O)ccc(c43)n2CCCC(=O)O)c2cccc3c(S(=O)(=O)[O-])ccc1c23` [D20], the “Abs λmax (absorbance max, UV-Vis λmax)” value in data set [2] (methanol) is reported as approximately 980 nm.

With `CCn1\c(=C/C=C(/C=C/C2=[N+](CC)c3ccc(S(=O)(=O)O)c4cccc2c34)c2ccc(C(=O)O)cn2)c2cccc3c(S(=O)(=O)O)ccc1c32` [D71], in data set [2] (methanol), the “Abs λmax (absorbance max, UV-Vis λmax)” value turned out to be 851 nm.

Take `O=S(=O)([O-])CCC[N+]1=C(/C=C/C2=C(Cl)C(=C/C=c3/c4cccc5cccc(c54)n3CCCS(=O)(=O)O)/C3CCC2C3)c2cccc3cccc1c23` (centres unmarked) [D72]: the “Abs λmax (absorbance max, UV-Vis λmax)” value in data set [2] (methanol) is approximately 1030 nm. The “Abs λmax” value in data set [2] (methanol, unit not given) worked out at 1026.

Take `O=C(O)CCCn1/c(=C/C=C/C=C/C=C/C2=[N+](CCCC(=O)O)c3ccc(S(=O)(=O)[O-])c4cccc2c34)c2cccc3c(S(=O)(=O)O)ccc1c32` [D74]: the “Abs λmax (absorbance max, UV-Vis λmax)” value in data set [2] (methanol) is reported as 980 nm.

As to `CCOC(=O)C1(C(=O)OCC)CC(/C=C/C2=[N+](CCCS(=O)(=O)O)c3ccc(S(=O)(=O)[O-])c4cccc2c34)=CC(=C/C=c2\c3cccc4c(S(=O)(=O)O)ccc(c43)n2CCCS(=O)(=O)O)/C1` [D75], the “Abs λmax (absorbance max, UV-Vis λmax)” value in data set [2] (methanol) was 990 nm.

Regarding `Cn1/c(=C\C=C2C(Cl)=C(/C=C/C3=[N+](C)c4ccc(S(=O)(=O)[O-])c5cccc3c45)C3CCC\2C3)c2cccc3c(S(=O)(=O)O)ccc1c32` (centres unmarked) [D81], the “Abs λmax (absorbance max, UV-Vis λmax)” value in data set [2] (methanol) is given as approximately 1026 nm.

Consider `Cn1/c(=C\C=C2/CCCC(/C=C/C3=[N+](C)c4ccc(S(=O)(=O)[O-])c5cccc3c45)=C2Cl)c2cccc3c(S(=O)(=O)O)ccc1c32` [D82], for which the “Abs λmax (absorbance max, UV-Vis λmax)” value in data set [2] (methanol) is on record as approximately 1020 nm.

On to `O=S(=O)([O-])CCC[N+]1=C(/C=C/C2=C(Cl)C(=C/C=c3/c4cccc5cccc(c54)n3CCCS(=O)(=O)O)/CCC2)c2cccc3cccc1c23` [D84], for which the “Abs λmax (absorbance max, UV-Vis λmax)” value in data set [2] (methanol) is on record as approximately 1020 nm.

With `O=S(=O)(O)CCCn1/c(=C\C=C2/CCCC(/C=C/C3=[N+](CCCS(=O)(=O)O)c4ccc(S(=O)(=O)[O-])c5cccc3c45)=C2Cl)c2cccc3c(S(=O)(=O)O)ccc1c32` [D85], the “Abs λmax (absorbance max, UV-Vis λmax)” value in data set [2] (methanol) was approximately 1030 nm.

With `CC1(C)C(/C=C/C=C/C=C/C=c2/c3cccc4c(S(=O)(=O)O)ccc(c43)n2CCCC(=O)O)=[N+](CCCS(=O)(=O)[O-])c2ccc3c(S(=O)(=O)O)cc(S(=O)(=O)O)cc3c21` [D86], the “Abs λmax (absorbance max, UV-Vis λmax)” value in data set [2] (methanol) is approximately 890 nm.

With `ClC1=C(/C=C/c2cc(-c3ccccc3)[s+]c3ccccc23)CCC/C1=C\C=C1/C=C(c2ccccc2)Sc2ccccc21.[O-][Cl+3]([O-])([O-])[O-]` [D (IR-26), IR-26, reference compound], in data set [1] (DCE), the “% Fluorescence Relative to C” value was 58.89%. For the same compound, the “Fluorescence Max” value in data set [1] (setting [4]) amounted to 1118 nm.

For the compound `CCn1/c(=C\C=C2/CCCC(/C=C/C3=[N+](CC)c4ccc(S(=O)(=O)O)c5cccc3c45)=C2Cl)c2cccc3c(S(=O)(=O)O)ccc1c32` [compound 26], the Absorption max in data set [2] (in Methanol) was 1022 nm; in data set [2] (in Water), 829 nm; in data set [3] (in Acetonitrile), 1019 nm; in data set [3] (in Chloroform) it was 820 nm; in data set [3] (in DMSO), 1069 nm and 1065 nm; in data set [3] (in Dichloromethane), 810 nm. For the same compound, in data set [3] (in Ethanol), the Absorption max was found to be 1032 nm.
